# Measured values as given in ChEMBL document CHEMBL1150741, “Polygodial, an antifungal potentiator” (1988).
# Activity calls are given as the source filed them. No cut-off for these calls is given here. Starred links: 1 amine or outer side, 2 acyl side, 3 side chain; linkers in the order of their positions; H or OH if unused. Positions of bridges follow the written chain, without caps; N, C: chain ends. Non-standard residues stand in square brackets, D forms with d. Residues, ends and D or L forms follow the SMILES beside them. Chains are numbered I, II in the order given. Actinocin(9to1) = Cc1c2oc3c(C)ccc(C(=O)[*:1])c3nc-2c(C(=O)[*:2])c(N)c1=O; NMeV = CN[C@H](C(=O)O)C(C)C; Sar = CNCC(=O)O
# Tests used:
# [1] = system: Wickerhamomyces anomalus; experiment: Antimicrobial activity against Hansenula anomala IFO 0136 after 2 days; assay type: functional; settings: IFO 0136, 48 h
# [2] = system: Staphylococcus aureus; experiment: Antimicrobial activity against Staphylococcus aureus NCTC 8530 after 2 days; assay type: functional; settings: NCTC 8530, 48 h
# [3] = system: Bacillus subtilis; experiment: Antimicrobial activity against Bacillus subtilis K-49 after 2 days; assay type: functional; settings: K-49, 48 h
# [4] = system: Micrococcus luteus; experiment: Antimicrobial activity against Micrococcus lysodeikticus IFO 3333 after 2 days; assay type: functional; settings: IFO 3333, 48 h
# [5] = system: Escherichia coli; experiment: Antimicrobial activity against Escherichia coli IFO 3545 after 2 days; assay type: functional; settings: IFO 3545, 48 h
# [6] = system: Proteus vulgaris; experiment: Antimicrobial activity against Proteus vulgaris IAM 12003 after 2 days; assay type: functional; settings: IAM 12003, 48 h
# [7] = system: Pseudomonas aeruginosa; experiment: Antimicrobial activity against Pseudomonas aeruginosa IAM 1007 after 2 days; assay type: functional; settings: IAM 1007, 48 h
# [8] = system: Saccharomyces cerevisiae; experiment: Antimicrobial activity against Saccharomyces cerevisiae IFO 0203 after 2 days; assay type: functional; settings: IFO 0203, 48 h
# [9] = system: Schizosaccharomyces pombe; experiment: Antimicrobial activity against Schizosaccharomyces pombe IFO 0342 after 2 days; assay type: functional; settings: IFO 0342, 48 h
# [10] = system: Cyberlindnera jadinii; experiment: Antimicrobial activity against Candida utilis ATCC 42402 after 2 days; assay type: functional; settings: for MIC: Williopsis jadinii, ATCC 42402, 48 h
# [11] = system: Sclerotinia; experiment: Antimicrobial activity against Sclerotinia libertiana SS after 2 days; assay type: functional; settings: 48 h
# [12] = system: Mucor mucedo; experiment: Antimicrobial activity against Mucor mucedo IFO 7684 after 2 days; assay type: functional; settings: IFO 7684, 48 h
# [13] = system: Rhizopus microsporus var. chinensis; experiment: Antimicrobial activity against Rhizopus chinensis IFO 4745 after 2 days; assay type: functional; settings: IFO 4745, 48 h
# [14] = system: Aspergillus niger; experiment: Antimicrobial activity against Aspergillus niger ATCC 6275 after 2 days; assay type: functional; settings: ATCC 6275, 48 h
# [15] = system: Penicillium crustosum; experiment: Antimicrobial activity against Penicillium crustosum Thom after 2 days; assay type: functional; settings: 48 h
# [16] = system: Schizosaccharomyces pombe; experiment: Antifungal activity against Schizosaccharomyces pombe IFO 0342 in Henneberg medium at pH 7 after 2 days; assay type: functional; settings: IFO 0342, 48 h
# [17] = system: Cyberlindnera jadinii; experiment: Antifungal activity against Candida utilis ATCC 42402 in Malt Wort medium at pH 5 after 2 days; assay type: functional; settings: Williopsis jadinii, ATCC 42402, 48 h
# [18] = system: Schizosaccharomyces pombe; experiment: Antifungal activity against Schizosaccharomyces pombe IFO 0342 in Malt Wort medium at pH 5 after 2 days; assay type: functional; settings: IFO 0342, 48 h
# [19] = system: Saccharomyces cerevisiae; experiment: Antifungal activity against Saccharomyces cerevisiae IFO 0203 in Henneberg medium at pH 5.2 after 2 days; assay type: functional; settings: IFO 0203, 48 h
# [20] = system: Cyberlindnera jadinii; experiment: Antifungal activity against Candida utilis ATCC 42402 in Henneberg medium at pH 5.2 after 2 days; assay type: functional; settings: Williopsis jadinii, ATCC 42402, 48 h
# [21] = system: Schizosaccharomyces pombe; experiment: Antifungal activity against Schizosaccharomyces pombe IFO 0342 in Henneberg medium at pH 5.2 after 2 days; assay type: functional; settings: IFO 0342, 48 h
# [22] = system: Saccharomyces cerevisiae; experiment: Antifungal activity against Saccharomyces cerevisiae IFO 0203 in Henneberg medium at pH 7 after 2 days; assay type: functional; settings: IFO 0203, 48 h
# [23] = system: Cyberlindnera jadinii; experiment: Antifungal activity against Candida utilis ATCC 42402 in Henneberg medium at pH 7 after 2 days; assay type: functional; settings: Williopsis jadinii, ATCC 42402, 48 h
# [24] = system: Saccharomyces cerevisiae; experiment: Antifungal activity against Saccharomyces cerevisiae IFO 0203 in Henneberg medium at pH 3.1 after 2 days; assay type: functional; settings: IFO 0203, 48 h
# [25] = system: Cyberlindnera jadinii; experiment: Antifungal activity against Candida utilis ATCC 42402 in Henneberg medium at pH 3.1 after 2 days; assay type: functional; settings: Williopsis jadinii, ATCC 42402, 48 h
# [26] = system: Schizosaccharomyces pombe; experiment: Antifungal activity against Schizosaccharomyces pombe IFO 0342 in Henneberg medium at pH 3.1 after 2 days; assay type: functional; settings: IFO 0342, 48 h
# [27] = system: Saccharomyces cerevisiae; experiment: Antifungal activity against Saccharomyces cerevisiae IFO 0203 assessed as leakage of cellular constituents at 1 to 10 ug/mL by folin reagent method; assay type: functional, organism-based
# [28] = system: Saccharomyces cerevisiae; experiment: Antifungal activity against Saccharomyces cerevisiae IFO 0203 assessed as leakage of cellular constituents at 1 to 10 ug/mL by phenol-sulphuric acid reagent method; assay type: functional, organism-based
# [29] = system: Saccharomyces cerevisiae; experiment: Antifungal activity against Saccharomyces cerevisiae IFO 0203 assessed as organelle disorganization at 50 ug/mL after 10 mins by microscopy; assay type: functional, organism-based
# [30] = system: Saccharomyces cerevisiae; experiment: Antifungal activity against Saccharomyces cerevisiae IFO 0203 assessed as fetal loss of cellular constituents at 50 ug/mL after 10 mins by microscopy; assay type: functional, organism-based
# [31] = system: Wickerhamomyces anomalus; experiment: Antifungal activity against Hansenula anomala IFO 0136 in Henneberg medium at pH 5.2 after 2 days; assay type: functional; settings: IFO 0136, 48 h
# [32] = system: Wickerhamomyces anomalus; experiment: Antifungal activity against Hansenula anomala IFO 0136 in Henneberg medium at pH 7 after 2 days; assay type: functional; settings: IFO 0136, 48 h
# [33] = system: Wickerhamomyces anomalus; experiment: Antifungal activity against Hansenula anomala IFO 0136 in Henneberg medium at pH 3.1 after 2 days; assay type: functional; settings: IFO 0136, 48 h
# [34] = system: Saccharomyces cerevisiae; experiment: Antifungal activity against Saccharomyces cerevisiae IFO 0203 in Malt Wort medium at pH 5 after 2 days; assay type: functional; settings: IFO 0203, 48 h
# [35] = system: Wickerhamomyces anomalus; experiment: Antifungal activity against Hansenula anomala IFO 0136 in Malt Wort medium at pH 5 after 2 days; assay type: functional; settings: IFO 0136, 48 h
Structure (SMILES),MIC [1] [µg/mL],MIC [2] [µg/mL],MIC [3] [µg/mL],MIC [4] [µg/mL],MIC [5] [µg/mL],MIC [6] [µg/mL],MIC [7] [µg/mL],MIC [8] [µg/mL],MIC [9] [µg/mL],MIC [10] [µg/mL],MIC [11] [µg/mL],MIC [12] [µg/mL],MIC [13] [µg/mL],MIC [14] [µg/mL],MIC [15] [µg/mL],also measured
C=C1[C@@H](C)CC[C@@]2(C)[C@H]1CC=C(C=O)[C@]2(O)C=O,25,> 100,> 100,> 100,> 100,> 100,> 100,1.56,25,3.13,3.13,25,100,50,50,–
"Cc1c2oc3c(C)ccc(C(=O)N[C@@H]4C(=O)N[C@H](C(C)C)C(=O)N5CCC[C@H]5C(=O)N(C)CC(=O)N(C)[C@@H](C(C)C)C(=O)O[C@@H]4C)c3nc-2c(C(=O)N[C@@H]2C(=O)N[C@H](C(C)C)C(=O)N3CCC[C@H]3C(=O)N(C)CC(=O)N(C)[C@@H](C(C)C)C(=O)O[C@@H]2C)c(N)c1=O (I: T[dV]P[Sar][NMeV] / II: T[dV]P[Sar][NMeV]; ester I:1-I:C, II:1-II:C; linker I:N-II:N via Actinocin(9to1))",–,–,–,–,–,–,–,–,–,–,–,–,–,–,–,Activity [10]: inactive
CC1(C)CCC[C@]2(C)[C@@H](C=O)C(C=O)=CC[C@@H]12 [POLYGODIAL],1.56,> 100,> 100,> 100,> 100,> 100,> 100,0.78,6.25,1.56,1.56,6.25,12.5,25,25,MIC [16]: > 25 µg/mL; MIC [17]: 1.56 µg/mL; MIC [18]: 6.25 µg/mL; MIC [19]: 1.56 µg/mL; MIC [20]: 3.13 µg/mL; MIC [21]: 25 µg/mL; MIC [22]: > 25 µg/mL; MIC [23]: > 25 µg/mL; MIC [24]: 0.2 µg/mL; MIC [25]: 0.78 µg/mL; MIC [26]: 6.25 µg/mL; Activity [27]: Active; Activity [28]: Active; Activity [29]: Active; Activity [30]: Active; MIC [31]: 6.25 µg/mL; MIC [32]: > 25 µg/mL; MIC [33]: 1.56 µg/mL; MIC [34]: 0.78 µg/mL; MIC [35]: 1.56 µg/mL
CC1(C)CCC[C@@]2(C)[C@H]1CC=C(C=O)[C@]2(O)C=O [WARBURGANAL],12.5,> 100,> 100,> 100,> 100,> 100,> 100,3.13,12.5,3.13,3.13,25,100,50,50,–
